Source: article PMC4979471 (Cell Death Discovery, 2015)
Like-named read-outs stand apart in the source and are kept apart here.

Legend:
Assay in all cases: Kinase selectivity, P33-radiolabeled assay
Format in all cases: biochemical
Settings in all cases: 10 μM ATP
WNK2 = target: T1, WNK2 (Homo sapiens, UniProt Q9Y3S1)
T1 construct: purchased Reaction Biology Corp
Method in brief: (§1)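 Each enzyme was exposed to 10 μM compound, with duplicate measurements, in reactions containing 10 μM ATP. Numbers are remaining activity as a percent of the vehicle (DMSO) signal.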

CSK = target: T2, CSK (Homo sapiens, UniProt P41240)
T2 construct: purchased Reaction Biology Corp
Method in brief: as §1

MSK2/RPS6KA4 = target: T3, MSK2/RPS6KA4 (Homo sapiens, UniProt O75676)
T3 construct: purchased Reaction Biology Corp
Method in brief: as §1

MEK3 = target: T4, MEK3 (Homo sapiens, UniProt P46734)
T4 construct: purchased Reaction Biology Corp
T4 sequence (P46734 1-347): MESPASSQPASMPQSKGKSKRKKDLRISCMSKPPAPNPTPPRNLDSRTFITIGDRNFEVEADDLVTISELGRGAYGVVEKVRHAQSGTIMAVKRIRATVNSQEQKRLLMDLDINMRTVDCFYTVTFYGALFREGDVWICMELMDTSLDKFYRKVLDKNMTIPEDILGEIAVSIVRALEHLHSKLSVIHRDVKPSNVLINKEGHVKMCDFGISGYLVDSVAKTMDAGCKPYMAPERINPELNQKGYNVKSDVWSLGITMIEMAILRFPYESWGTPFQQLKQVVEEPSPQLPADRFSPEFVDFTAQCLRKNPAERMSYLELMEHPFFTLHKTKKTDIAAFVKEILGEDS
Method in brief: as §1

MST1/STK4 = target: T5, MST1/STK4 (Homo sapiens, UniProt Q13043)
T5 construct: purchased Reaction Biology Corp
T5 sequence (Q13043 1-487): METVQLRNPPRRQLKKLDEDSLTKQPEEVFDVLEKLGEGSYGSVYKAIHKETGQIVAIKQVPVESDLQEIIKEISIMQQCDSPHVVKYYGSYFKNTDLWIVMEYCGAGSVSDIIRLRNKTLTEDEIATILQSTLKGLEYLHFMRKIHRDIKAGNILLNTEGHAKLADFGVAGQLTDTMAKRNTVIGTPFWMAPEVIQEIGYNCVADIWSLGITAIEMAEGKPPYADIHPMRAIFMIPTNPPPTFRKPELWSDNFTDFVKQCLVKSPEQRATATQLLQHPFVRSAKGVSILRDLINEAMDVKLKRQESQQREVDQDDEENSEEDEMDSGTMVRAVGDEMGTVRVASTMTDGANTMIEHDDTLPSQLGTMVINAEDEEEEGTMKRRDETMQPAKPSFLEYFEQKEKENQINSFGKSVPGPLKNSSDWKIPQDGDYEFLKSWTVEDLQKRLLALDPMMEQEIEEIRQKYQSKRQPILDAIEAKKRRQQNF
Method in brief: as §1

FGFR3 = target: T6, FGFR3 (Homo sapiens, UniProt P22607)
T6 construct: purchased Reaction Biology Corp
Method in brief: as §1

SGK2 = target: T7, SGK2 (Homo sapiens, UniProt Q9HBY8)
T7 construct: purchased Reaction Biology Corp
T7 sequence (Q9HBY8 1-367): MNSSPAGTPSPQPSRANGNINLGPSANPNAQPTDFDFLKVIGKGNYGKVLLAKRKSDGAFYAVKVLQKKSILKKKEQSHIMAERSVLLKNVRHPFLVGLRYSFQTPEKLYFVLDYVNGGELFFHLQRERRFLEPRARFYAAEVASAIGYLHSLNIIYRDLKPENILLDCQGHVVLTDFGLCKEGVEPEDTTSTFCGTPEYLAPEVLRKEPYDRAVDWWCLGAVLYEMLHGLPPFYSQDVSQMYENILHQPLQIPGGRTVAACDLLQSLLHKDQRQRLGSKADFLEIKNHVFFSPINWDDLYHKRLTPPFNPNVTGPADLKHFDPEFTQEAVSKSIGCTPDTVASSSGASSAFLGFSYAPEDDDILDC
Method in brief: as §1

IRR/INSRR = target: T8, IRR/INSRR (Homo sapiens, UniProt P14616)
T8 construct: purchased Reaction Biology Corp
Method in brief: as §1

DCAMKL1 = target: T9, DCAMKL1 (Homo sapiens, UniProt O15075)
T9 construct: purchased Reaction Biology Corp
T9 sequence (O15075 1-740): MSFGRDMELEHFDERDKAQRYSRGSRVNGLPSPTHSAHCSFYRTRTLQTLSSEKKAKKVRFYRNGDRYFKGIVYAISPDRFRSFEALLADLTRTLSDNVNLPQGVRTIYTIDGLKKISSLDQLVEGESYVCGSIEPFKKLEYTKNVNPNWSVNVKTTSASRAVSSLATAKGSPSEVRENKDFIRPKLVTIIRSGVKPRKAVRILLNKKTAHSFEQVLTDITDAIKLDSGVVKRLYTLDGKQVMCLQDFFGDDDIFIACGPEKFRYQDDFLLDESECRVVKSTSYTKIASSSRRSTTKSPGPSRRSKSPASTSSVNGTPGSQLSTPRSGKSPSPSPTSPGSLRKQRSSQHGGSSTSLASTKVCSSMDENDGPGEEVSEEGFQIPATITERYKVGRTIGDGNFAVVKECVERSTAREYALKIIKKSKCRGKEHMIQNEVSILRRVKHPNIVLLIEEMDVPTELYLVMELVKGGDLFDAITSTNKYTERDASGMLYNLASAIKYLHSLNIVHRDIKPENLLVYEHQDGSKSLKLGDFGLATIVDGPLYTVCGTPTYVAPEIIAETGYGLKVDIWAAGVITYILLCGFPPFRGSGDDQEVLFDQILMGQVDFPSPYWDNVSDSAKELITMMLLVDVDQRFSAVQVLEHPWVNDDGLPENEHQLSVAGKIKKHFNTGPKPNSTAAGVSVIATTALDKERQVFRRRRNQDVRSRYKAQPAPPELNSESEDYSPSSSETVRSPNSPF
Method in brief: as §1

CDK6/cyclin D1 = target: T10, CDK6/cyclin D1 (Homo sapiens, UniProt Q00534)
T10 construct: purchased Reaction Biology Corp
Method in brief: as §1

RIPK3 = target: T11, RIPK3 (Homo sapiens, UniProt Q9Y572)
T11 construct: purchased Reaction Biology Corp
Method in brief: as §1

[1] = read-out: % Enzyme Activity (relative to DMSO controls) AVG
[2] = read-out: % Enzyme Activity (relative to DMSO controls) Data 1
[3] = read-out: % Enzyme Activity (relative to DMSO controls) Data 2

T6 sequence (P22607 23-806): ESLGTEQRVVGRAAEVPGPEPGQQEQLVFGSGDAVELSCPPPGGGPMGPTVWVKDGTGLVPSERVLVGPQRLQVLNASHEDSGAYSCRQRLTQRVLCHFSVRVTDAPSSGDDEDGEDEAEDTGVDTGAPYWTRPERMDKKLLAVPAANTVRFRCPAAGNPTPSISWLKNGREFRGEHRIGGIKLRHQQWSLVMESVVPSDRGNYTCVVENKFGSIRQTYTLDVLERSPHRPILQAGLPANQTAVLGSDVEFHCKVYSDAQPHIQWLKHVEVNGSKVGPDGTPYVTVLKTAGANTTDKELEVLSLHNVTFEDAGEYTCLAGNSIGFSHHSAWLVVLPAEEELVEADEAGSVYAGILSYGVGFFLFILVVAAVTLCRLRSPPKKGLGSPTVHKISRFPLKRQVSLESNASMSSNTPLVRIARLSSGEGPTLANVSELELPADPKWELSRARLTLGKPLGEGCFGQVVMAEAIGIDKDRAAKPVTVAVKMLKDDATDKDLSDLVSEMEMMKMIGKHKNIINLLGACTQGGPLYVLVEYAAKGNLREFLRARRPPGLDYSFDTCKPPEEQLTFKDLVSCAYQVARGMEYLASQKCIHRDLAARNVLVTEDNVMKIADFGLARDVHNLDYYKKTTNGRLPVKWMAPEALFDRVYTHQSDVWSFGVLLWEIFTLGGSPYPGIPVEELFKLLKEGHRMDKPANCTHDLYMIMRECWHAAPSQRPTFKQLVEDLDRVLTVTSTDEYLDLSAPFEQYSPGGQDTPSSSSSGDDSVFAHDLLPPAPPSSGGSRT
T10 sequence (Q00534 whole entry): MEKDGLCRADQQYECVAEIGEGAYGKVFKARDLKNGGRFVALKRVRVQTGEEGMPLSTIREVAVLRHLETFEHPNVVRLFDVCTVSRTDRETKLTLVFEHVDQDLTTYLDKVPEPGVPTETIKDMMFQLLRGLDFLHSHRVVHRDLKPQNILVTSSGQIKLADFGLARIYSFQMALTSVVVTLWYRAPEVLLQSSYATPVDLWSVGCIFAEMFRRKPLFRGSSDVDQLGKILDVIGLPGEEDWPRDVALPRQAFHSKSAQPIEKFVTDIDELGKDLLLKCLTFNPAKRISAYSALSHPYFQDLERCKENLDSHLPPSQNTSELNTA
T10 sequence (P24385 whole entry partner): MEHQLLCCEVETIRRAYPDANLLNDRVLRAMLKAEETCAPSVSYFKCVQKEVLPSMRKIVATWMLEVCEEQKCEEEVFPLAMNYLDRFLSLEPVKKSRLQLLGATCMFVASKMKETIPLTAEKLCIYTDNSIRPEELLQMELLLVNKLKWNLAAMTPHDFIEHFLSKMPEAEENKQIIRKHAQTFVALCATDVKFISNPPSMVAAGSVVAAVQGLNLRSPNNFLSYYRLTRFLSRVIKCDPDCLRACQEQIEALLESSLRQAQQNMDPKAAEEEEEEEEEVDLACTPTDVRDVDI
T11 sequence (Q9Y572 whole entry): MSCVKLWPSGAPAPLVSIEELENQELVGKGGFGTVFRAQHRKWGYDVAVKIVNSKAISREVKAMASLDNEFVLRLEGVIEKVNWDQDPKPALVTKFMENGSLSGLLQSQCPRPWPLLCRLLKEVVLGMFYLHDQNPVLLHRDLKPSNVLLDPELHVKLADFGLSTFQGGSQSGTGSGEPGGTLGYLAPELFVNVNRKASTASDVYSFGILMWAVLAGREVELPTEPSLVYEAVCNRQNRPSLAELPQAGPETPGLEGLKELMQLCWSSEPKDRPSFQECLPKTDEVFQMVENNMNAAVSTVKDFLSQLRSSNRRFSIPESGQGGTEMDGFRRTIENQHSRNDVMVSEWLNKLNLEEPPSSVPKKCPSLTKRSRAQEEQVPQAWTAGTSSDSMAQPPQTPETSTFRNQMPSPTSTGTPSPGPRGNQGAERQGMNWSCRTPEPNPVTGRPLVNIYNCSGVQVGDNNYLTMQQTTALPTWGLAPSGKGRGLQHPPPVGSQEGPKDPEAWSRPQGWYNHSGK
T1 sequence (Q9Y3S1 whole entry): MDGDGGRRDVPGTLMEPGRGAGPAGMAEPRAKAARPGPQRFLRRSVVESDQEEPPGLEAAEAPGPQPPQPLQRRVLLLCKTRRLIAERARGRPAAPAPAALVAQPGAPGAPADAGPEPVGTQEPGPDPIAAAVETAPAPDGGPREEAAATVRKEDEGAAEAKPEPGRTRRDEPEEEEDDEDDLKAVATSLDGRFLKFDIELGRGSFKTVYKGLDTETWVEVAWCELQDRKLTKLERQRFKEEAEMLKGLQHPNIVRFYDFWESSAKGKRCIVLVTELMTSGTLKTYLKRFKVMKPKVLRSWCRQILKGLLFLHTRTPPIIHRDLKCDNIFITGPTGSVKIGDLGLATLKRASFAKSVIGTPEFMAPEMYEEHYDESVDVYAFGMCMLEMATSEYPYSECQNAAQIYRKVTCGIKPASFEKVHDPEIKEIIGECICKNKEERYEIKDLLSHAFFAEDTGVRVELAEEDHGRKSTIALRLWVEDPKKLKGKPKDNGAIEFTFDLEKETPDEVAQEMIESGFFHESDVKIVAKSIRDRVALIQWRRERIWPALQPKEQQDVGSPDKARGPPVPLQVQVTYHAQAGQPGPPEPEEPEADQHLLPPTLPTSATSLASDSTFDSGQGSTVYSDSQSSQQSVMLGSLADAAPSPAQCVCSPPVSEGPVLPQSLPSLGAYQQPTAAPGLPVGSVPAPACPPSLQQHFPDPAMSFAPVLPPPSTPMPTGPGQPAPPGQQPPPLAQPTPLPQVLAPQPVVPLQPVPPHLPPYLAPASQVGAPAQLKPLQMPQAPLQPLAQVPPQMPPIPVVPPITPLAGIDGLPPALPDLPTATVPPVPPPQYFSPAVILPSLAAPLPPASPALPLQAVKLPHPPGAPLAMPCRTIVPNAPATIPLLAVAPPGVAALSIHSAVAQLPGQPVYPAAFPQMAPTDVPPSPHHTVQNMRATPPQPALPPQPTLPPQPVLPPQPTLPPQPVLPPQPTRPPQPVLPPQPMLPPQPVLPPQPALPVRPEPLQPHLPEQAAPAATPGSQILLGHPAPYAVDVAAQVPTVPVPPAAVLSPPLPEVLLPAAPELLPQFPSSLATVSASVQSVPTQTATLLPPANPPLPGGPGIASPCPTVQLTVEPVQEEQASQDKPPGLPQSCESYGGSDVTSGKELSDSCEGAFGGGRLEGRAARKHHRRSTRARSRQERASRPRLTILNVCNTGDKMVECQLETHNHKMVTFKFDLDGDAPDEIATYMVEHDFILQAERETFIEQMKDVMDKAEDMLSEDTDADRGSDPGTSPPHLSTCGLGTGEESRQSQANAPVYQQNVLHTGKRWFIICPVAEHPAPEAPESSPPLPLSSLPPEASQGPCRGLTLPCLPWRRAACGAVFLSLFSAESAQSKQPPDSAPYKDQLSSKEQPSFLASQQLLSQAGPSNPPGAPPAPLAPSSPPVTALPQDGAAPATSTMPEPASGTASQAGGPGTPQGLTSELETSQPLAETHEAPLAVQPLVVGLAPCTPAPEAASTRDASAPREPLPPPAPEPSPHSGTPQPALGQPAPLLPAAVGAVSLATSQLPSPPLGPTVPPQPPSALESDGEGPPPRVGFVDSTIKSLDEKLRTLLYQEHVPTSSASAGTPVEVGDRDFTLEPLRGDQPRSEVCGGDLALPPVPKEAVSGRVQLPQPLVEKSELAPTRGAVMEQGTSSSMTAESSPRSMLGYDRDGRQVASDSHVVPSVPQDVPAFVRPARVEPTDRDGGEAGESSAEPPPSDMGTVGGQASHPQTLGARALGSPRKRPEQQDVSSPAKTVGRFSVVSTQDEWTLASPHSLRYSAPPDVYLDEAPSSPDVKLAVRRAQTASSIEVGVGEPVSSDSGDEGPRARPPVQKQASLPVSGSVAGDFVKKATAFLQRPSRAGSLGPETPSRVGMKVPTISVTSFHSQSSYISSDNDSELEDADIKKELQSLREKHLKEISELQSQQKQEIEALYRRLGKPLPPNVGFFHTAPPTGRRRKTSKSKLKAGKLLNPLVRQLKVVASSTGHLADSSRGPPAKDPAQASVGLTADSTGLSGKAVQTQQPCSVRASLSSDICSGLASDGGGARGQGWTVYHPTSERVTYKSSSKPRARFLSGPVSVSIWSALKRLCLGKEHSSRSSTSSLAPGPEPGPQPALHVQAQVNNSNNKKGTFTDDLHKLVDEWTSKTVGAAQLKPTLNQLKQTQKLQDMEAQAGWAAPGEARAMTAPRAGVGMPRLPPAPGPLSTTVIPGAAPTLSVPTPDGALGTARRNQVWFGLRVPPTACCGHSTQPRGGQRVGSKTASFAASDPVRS
T2 sequence (P41240 whole entry): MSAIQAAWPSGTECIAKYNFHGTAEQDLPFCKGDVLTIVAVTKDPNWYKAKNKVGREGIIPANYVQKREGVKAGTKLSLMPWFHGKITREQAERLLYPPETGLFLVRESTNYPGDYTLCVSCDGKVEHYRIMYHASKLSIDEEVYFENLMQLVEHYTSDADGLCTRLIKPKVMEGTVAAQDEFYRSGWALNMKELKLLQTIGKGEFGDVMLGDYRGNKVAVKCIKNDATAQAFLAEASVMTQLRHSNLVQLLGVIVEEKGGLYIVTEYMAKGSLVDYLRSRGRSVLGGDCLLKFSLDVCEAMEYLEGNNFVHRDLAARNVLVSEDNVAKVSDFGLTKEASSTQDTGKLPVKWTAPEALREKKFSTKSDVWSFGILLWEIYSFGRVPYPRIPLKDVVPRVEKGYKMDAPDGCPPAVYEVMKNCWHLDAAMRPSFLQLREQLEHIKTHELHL

CC(C)(C)C(=O)N1N=CC[C@H]1c1ccccc1 [GSK′963]
remaining activity at 10 µM (WNK2; [1]): 97.4%
remaining activity at 10 µM (WNK2; [2]): 99.3%
remaining activity at 10 µM (WNK2; [3]): 95.5%
remaining activity at 10 µM (CSK; [1]): 104%
remaining activity at 10 µM (CSK; [2]): 104%
remaining activity at 10 µM (CSK; [3]): 103%
remaining activity at 10 µM (MSK2/RPS6KA4; [1]): 104%
remaining activity at 10 µM (MSK2/RPS6KA4; [2]): 104%
remaining activity at 10 µM (MSK2/RPS6KA4; [3]): 103%
remaining activity at 10 µM (MEK3; [1]): 108%
remaining activity at 10 µM (MEK3; [2]): 103%
remaining activity at 10 µM (MEK3; [3]): 113%
remaining activity at 10 µM (MST1/STK4; [1]): 100%
remaining activity at 10 µM (MST1/STK4; [2]): 101%
remaining activity at 10 µM (MST1/STK4; [3]): 100%
remaining activity at 10 µM (FGFR3; [1]): 99.4%
remaining activity at 10 µM (FGFR3; [2]): 103%
remaining activity at 10 µM (FGFR3; [3]): 95.7%
remaining activity at 10 µM (SGK2; [1]): 107%
remaining activity at 10 µM (SGK2; [2]): 109%
remaining activity at 10 µM (SGK2; [3]): 106%
remaining activity at 10 µM (IRR/INSRR; [1]): 75.3%
remaining activity at 10 µM (IRR/INSRR; [2]): 72.8%
remaining activity at 10 µM (IRR/INSRR; [3]): 77.7%
remaining activity at 10 µM (DCAMKL1; [1]): 92.5%
remaining activity at 10 µM (DCAMKL1; [2]): 96.2%
remaining activity at 10 µM (DCAMKL1; [3]): 88.8%
remaining activity at 10 µM (CDK6/cyclin D1; [1]): 93.7%
remaining activity at 10 µM (CDK6/cyclin D1; [2]): 94.2%
remaining activity at 10 µM (CDK6/cyclin D1; [3]): 93.2%
remaining activity at 10 µM (RIPK3; [1]): 99.3%
remaining activity at 10 µM (RIPK3; [2]): 100%
remaining activity at 10 µM (RIPK3; [3]): 98.7%
